In doi:10.1101/2023.10.01.560353v1 (bioRxiv, 2023):
In brackets after ≈: the same amount, converted by molar mass. Peptide text beside a SMILES is read from it.

Tests used:
[1] = tested on: A. baumannii ATCC 19606; assay: MIC, broth microdilution; assay type: cell-based, Acinetobacter baumannii; conditions: broth microdilution in LB, 20 h at 37 °C, OD600; mean of three replicates
[2] = tested on: 11 clinically relevant bacterial pathogens; assay: MIC over the panel of pathogens; assay type: cell-based; conditions: Table S17; lowest MIC over the strains tested
[3] = tested on: A. baumannii ATCC 19606; assay: Neutropenic thigh infection mouse model; assay type: in vivo, CD-1 mice; conditions: single intraperitoneal dose at MIC, n = 6

Compound	Minimal Inhibitory Concentration: A. baumannii ATCC19606 [1] [µmol/L]	MIC (lowest MIC value obtained in the antimicrobial activity assays) [2] [mM]	reduction of the bacterial load two days post-treatment [3]
CC(C)C[C@H](NC(=O)CNC(=O)[C@H](CCCNC(=N)N)NC(=O)[C@H](CCCCN)NC(=O)[C@H](CCCNC(=N)N)NC(=O)[C@@H](N)CCCCN)C(=O)N[C@@H](CCCCN)C(=O)N[C@@H](CC(C)C)C(=O)N[C@@H](C)C(=O)N[C@H](C(=O)N[C@@H](C)C(=O)N[C@@H](CC(C)C)C(=O)N[C@@H](CO)C(=O)N[C@@H](CC(C)C)C(=O)N[C@@H](CC(N)=O)C(=O)N[C@@H](CC(N)=O)C(=O)N[C@@H](CCCCN)C(=O)N[C@@H](Cc1ccccc1)C(=O)O)[C@@H](C)O [Mylodonin-2] (H-KRKRGLKLATALSLNNKF-OH)	64	32000 (≈ 65900 mg/mL)	–
CC[C@H](C)[C@H](NC(=O)[C@@H](N)CC(C)C)C(=O)N[C@H](C(=O)N[C@@H](CS)C(=O)N[C@@H](Cc1ccccc1)C(=O)N[C@@H](Cc1ccccc1)C(=O)N[C@@H](CCCNC(=N)N)C(=O)N[C@@H](CCC(N)=O)C(=O)N[C@@H](CC(C)C)C(=O)N[C@@H](CCCCN)C(=O)N[C@@H](Cc1ccccc1)C(=O)N[C@@H](Cc1c[nH]cn1)C(=O)N[C@@H](Cc1ccccc1)C(=O)O)C(C)C [Megalocerin-1] (H-LIVCFFRQLKFHF-OH)	8	8000 (≈ 13600 mg/mL)	–
CC[C@H](C)[C@H](NC(=O)[C@H](CCCCN)NC(=O)[C@H](CCCCN)NC(=O)[C@H](Cc1ccccc1)NC(=O)[C@H](Cc1ccccc1)NC(=O)[C@@H](NC(=O)[C@@H](NC(=O)[C@H](CO)NC(=O)[C@H](CCCCN)NC(=O)[C@@H](NC(=O)[C@@H](NC(=O)[C@H](Cc1c[nH]c2ccccc12)NC(=O)[C@H](CCCCN)NC(=O)[C@H](CCCCN)NC(=O)[C@@H](NC(=O)[C@H](CCC(=O)O)NC(=O)[C@H](CCCCN)NC(=O)[C@H](CC(C)C)NC(=O)[C@@H](NC(=O)[C@H](CCCCN)NC(=O)[C@H](CCCNC(=N)N)NC(=O)[C@H](CC(C)C)NC(=O)[C@H](CC(C)C)NC(=O)[C@@H](N)CCCCN)C(C)C)[C@@H](C)O)C(C)C)[C@@H](C)CC)C(C)C)C(C)C)C(=O)N[C@@H](CCCNC(=N)N)C(=O)N[C@@H](CCCCN)C(=O)O [Hesperelin-1] (H-KLLRKVLKETKKWVIKSVVFFKKIRK-OH)	8	2000 (≈ 6490 mg/mL)	–
CC[C@H](C)[C@H](NC(=O)[C@H](Cc1ccccc1)NC(=O)[C@@H](N)CCCCN)C(=O)N[C@@H](CC(C)C)C(=O)N[C@@H](CC(N)=O)C(=O)N[C@@H](Cc1ccccc1)C(=O)N[C@@H](CCCCN)C(=O)N[C@H](C(=O)N1CCC[C@H]1C(=O)N[C@H](C(=O)N[C@@H](CO)C(=O)N[C@@H](Cc1ccccc1)C(=O)N[C@@H](CCCCN)C(=O)O)[C@@H](C)CC)[C@@H](C)CC [Pinguinusin-1] (H-KFILNFKIPISFK-OH)	–	4000 (≈ 6380 mg/mL)	–
CC[C@H](C)[C@H](NC(=O)[C@H](CCCCN)NC(=O)[C@H](CC(N)=O)NC(=O)[C@@H](NC(=O)[C@@H](NC(=O)[C@H](Cc1c[nH]c2ccccc12)NC(=O)[C@H](CC(C)C)NC(=O)[C@H](CCC(N)=O)NC(=O)[C@H](CC(C)C)NC(=O)[C@@H](NC(=O)[C@H](C)NC(=O)[C@H](CC(C)C)NC(=O)[C@@H](N)CCCNC(=N)N)[C@@H](C)O)[C@@H](C)O)[C@@H](C)CC)C(=O)N[C@H](C(=O)N[C@@H](CCCCN)C(=O)N[C@@H](CCC(N)=O)C(=O)N[C@@H](CC(C)C)C(=O)N[C@@H](CCSC)C(=O)N[C@H](C(=O)N1CCC[C@H]1C(=O)N[C@@H](CC(C)C)C(=O)N[C@@H](CC(N)=O)C(=O)N[C@@H](CCCCN)C(=O)N1CCC[C@H]1C(=O)NCC(=O)N[C@@H](Cc1c[nH]cn1)C(=O)N[C@@H](CCCCN)C(=O)O)[C@@H](C)CC)[C@@H](C)O [Ararin-2] (H-RLATLQLWTINKITKQLMIPLNKPGHK-OH)	–	16000 (≈ 50500 mg/mL)	–
CC[C@H](C)[C@H](NC(=O)CNC(=O)[C@H](Cc1c[nH]cn1)NC(=O)[C@H](CC(N)=O)NC(=O)[C@H](CCCCN)NC(=O)[C@H](CCC(N)=O)NC(=O)[C@@H](N)CCCNC(=N)N)C(=O)N[C@@H](Cc1c[nH]cn1)C(=O)N[C@@H](Cc1ccccc1)C(=O)N[C@@H](CCCNC(=N)N)C(=O)N[C@H](C(=O)N[C@@H](CC(C)C)C(=O)N[C@@H](C)C(=O)N[C@@H](CCCCN)C(=O)N[C@@H](C)C(=O)N[C@@H](CC(C)C)C(=O)N[C@@H](CCCNC(=N)N)C(=O)O)C(C)C [Hesperelin-3] (H-RQKNHGIHFRVLAKALR-OH)	–	64000 (≈ 131000 mg/mL)	–
CC(C)C[C@H](NC(=O)[C@H](CC(C)C)NC(=O)[C@@H](NC(=O)[C@H](CCCNC(=N)N)NC(=O)[C@H](C)NC(=O)[C@H](Cc1ccccc1)NC(=O)[C@H](CCCNC(=N)N)NC(=O)[C@H](CO)NC(=O)[C@H](Cc1c[nH]c2ccccc12)NC(=O)[C@H](CCCNC(=N)N)NC(=O)[C@H](CC(C)C)NC(=O)[C@H](CCCCN)NC(=O)[C@H](CC(C)C)NC(=O)[C@@H](N)Cc1ccccc1)C(C)C)C(=O)O [Equusin-1] (H-FLKLRWSRFARVLL-OH)	–	1000 (≈ 1810 mg/mL)	–
CC[C@H](C)[C@H](NC(=O)[C@H](CC(C)C)NC(=O)[C@H](CCCNC(=N)N)NC(=O)[C@H](Cc1c[nH]c2ccccc12)NC(=O)[C@H](CC(C)C)NC(=O)[C@@H](NC(=O)[C@H](CCCNC(=N)N)NC(=O)[C@H](CCC(N)=O)NC(=O)[C@H](Cc1ccc(O)cc1)NC(=O)[C@H](CC(C)C)NC(=O)[C@@H](N)CCCCN)[C@@H](C)CC)C(=O)N[C@@H](CO)C(=O)N[C@@H](CCC(=O)O)C(=O)N[C@@H](CC(C)C)C(=O)O [Equusin-3] (H-KLYQRILWRLISEL-OH)	–	4000 (≈ 7320 mg/mL)	–
CC[C@H](C)[C@H](NC(=O)[C@H](Cc1ccccc1)NC(=O)[C@@H](N)CC(C)C)C(=O)NCC(=O)N[C@@H](CC(C)C)C(=O)N[C@H](C(=O)N[C@@H](CC(N)=O)C(=O)N[C@@H](CC(C)C)C(=O)N[C@@H](CC(C)C)C(=O)NCC(=O)N[C@@H](CC(C)C)C(=O)N[C@@H](CC(C)C)C(=O)O)[C@@H](C)O [Mammuthusin-4] (H-LFIGLTNLLGLL-OH)	–	2000 (≈ 2570 mg/mL)	–
CC[C@H](C)[C@H](NC(=O)[C@@H]1CCCN1C(=O)[C@H](CC(N)=O)NC(=O)[C@@H]1CCCN1C(=O)[C@@H]1CCCN1C(=O)[C@H](CCCCN)NC(=O)[C@@H](N)CCCCN)C(=O)N[C@@H](CCCCN)C(=O)N1CCC[C@H]1C(=O)N[C@@H](CCCCN)C(=O)N[C@H](C(=O)N1CCC[C@H]1C(=O)N[C@@H](CC(C)C)C(=O)N[C@@H](CO)C(=O)N[C@@H](C)C(=O)N1CCC[C@H]1C(=O)N[C@@H](CCCNC(=N)N)C(=O)N[C@@H](CCCCN)C(=O)N[C@@H](CO)C(=O)N1CCC[C@H]1C(=O)N[C@@H](CC(N)=O)C(=O)N[C@H](C(=O)N[C@H](C(=O)N[C@@H](CCCCN)C(=O)N[C@@H](Cc1ccc(O)cc1)C(=O)N[C@@H](CCCNC(=N)N)C(=O)N[C@@H](CC(C)C)C(=O)N[C@@H](CCCCN)C(=O)N[C@@H](Cc1ccccc1)C(=O)N[C@@H](CCCNC(=N)N)C(=O)O)C(C)C)[C@@H](C)O)C(C)C [Mammuthusin-5] (H-KKPPNPIKPKVPLSAPRKSPNTVKYRLKFR-OH)	–	32000 (≈ 112000 mg/mL)	–
CC[C@H](C)[C@H](NC(=O)[C@H](CC(N)=O)NC(=O)[C@H](CC(C)C)NC(=O)[C@@H](NC(=O)[C@H](Cc1ccccc1)NC(=O)[C@@H]1CCCN1C(=O)[C@@H]1CCCN1C(=O)[C@@H](NC(=O)[C@H](CO)NC(=O)[C@H](CC(C)C)NC(=O)[C@H](CCCCN)NC(=O)[C@H](CCCCN)NC(=O)[C@H](Cc1ccc(O)cc1)NC(=O)[C@@H](NC(=O)[C@@H](N)CCCCN)[C@@H](C)CC)[C@@H](C)O)[C@@H](C)O)C(=O)N[C@@H](CCCNC(=N)N)C(=O)N[C@H](C(=O)N[C@@H](CC(C)C)C(=O)N1CCC[C@H]1C(=O)N[C@@H](CCCCN)C(=O)N[C@H](C(=O)N[C@@H](CCCCN)C(=O)N[C@@H](Cc1ccccc1)C(=O)N1CCC[C@H]1C(=O)N[C@@H](CCCCN)C(=O)O)C(C)C)[C@@H](C)O [Mylodonin-3] (H-KIYKKLSTPPFTLNIRTLPKVKFPK-OH)	–	16000 (≈ 47300 mg/mL)	–
polymyxin B [reference compound]	–	–	4-5 orders of magnitude
CC[C@H](C)[C@H](NC(=O)[C@@H](N)[C@@H](C)O)C(=O)N[C@@H](CCCCN)C(=O)N[C@@H](CC(C)C)C(=O)N[C@@H](Cc1ccccc1)C(=O)N[C@@H](CC(C)C)C(=O)N[C@@H](CO)C(=O)N[C@@H](Cc1ccccc1)C(=O)N[C@@H](CCCCN)C(=O)N[C@@H](CC(C)C)C(=O)O [Xenothrixin-1] (H-TIKLFLSFKL-OH)	–	8000 (≈ 9680 mg/mL)	–
CC[C@H](C)[C@H](NC(=O)[C@H](Cc1c[nH]cn1)NC(=O)[C@@H](N)CC(C)C)C(=O)NCC(=O)N[C@@H](CC(C)C)C(=O)N[C@H](C(=O)N[C@@H](CCCCN)C(=O)N[C@H](C(=O)N[C@@H](Cc1ccc(O)cc1)C(=O)N[C@@H](CC(C)C)C(=O)NCC(=O)N[C@@H](CO)C(=O)N[C@@H](Cc1ccccc1)C(=O)N[C@@H](C)C(=O)N[C@@H](CC(C)C)C(=O)O)[C@@H](C)O)[C@@H](C)CC [Eudyptin-1] (H-LHIGLIKTYLGSFAL-OH)	–	64000 (≈ 105000 mg/mL)	–
CC[C@H](C)[C@H](NC(=O)[C@H](CCCCN)NC(=O)[C@@H](NC(=O)[C@H](Cc1c[nH]c2ccccc12)NC(=O)[C@@H](N)CCCCN)[C@@H](C)O)C(=O)N[C@@H](Cc1ccc(O)cc1)C(=O)N[C@@H](CC(C)C)C(=O)N1CCC[C@H]1C(=O)N[C@@H](CC(C)C)C(=O)N[C@@H](CC(C)C)C(=O)N[C@@H](CC(C)C)C(=O)N1CCC[C@H]1C(=O)N[C@@H](CC(C)C)C(=O)O [Bisonin-2] (H-KWTKIYLPLLLPL-OH)	–	8000 (≈ 12800 mg/mL)	–
